The test system of data set [1] is ARV-2 strain of AIDS virus. As to the kind of experiment: Infectivity of ARV-2 strain of AIDS virus in H9 cells (Table 2). Conditions: for % Infection: 15 min preincubation, 24 h. The class given is cell-based. As for the experimental part: A stock solution of virus containing 3 to 5×10^4 infectious virus particles/ml was preincubated with the various drugs as indicated in Table 2 for 15 minutes. The virus sample was then diluted 4-fold in order to reduce the concentrations of the drugs below levels toxic to H9 cells (see Example 3 below) and mixed with 250,000 H9 cells in a total volume of 1 ml. After 24 hours, the cells were assayed to determine the percentage of the culture expressing viral antigen. This time interval was selected as it allows for only a single round of viral infection to have occurred such that the number of cells infected was a direct reflection of the number of infectious virions present in the original sample.

The test system of a further data set is H9 cells. The note with it: for % Viab (live cells/live & dead) / Viable Cells/ml: 10 min exposure; for % Viab (live cells/live & dead): after 24 h; for Viable Cells/ml: viability after 24 h. As for the experimental part: The toxicity of the various agents used in the antiviral compositions of the invention to human T4 -lymphocytes (H9 cells and marophages which are the carriers of the AIDS virus) may be relevant to the effectiveness of a drug. This is because killing these cells when present in semen or vaginal fluids may lead to release of virus making it more susceptible to the effects of the drug. With this in mind, the effect of short exposure (10 minutes) of AgSD and other drugs on H9 cells was tested by treating a suspension of H9 cells (1.6×10^6 /ml in HBSS) with […] of each drug or drug combination. After incubating for 10 minutes, the cells were washed twice in thirty volumes of HBSS; resuspended in RPMI 10% FCS+NaPyruvate and plated into 24 well plates at 4×10^5 cells/mi. Cell viability was determined after 24 hours and is reported as numbers of viable cells per ml and viable percentage (live cells/live cells+dead cells) in Table 3A.

The next data set deals with macrophages. In words: Rate of killing of macrophage by drugs, trypan-blue (Table 3B). The class given is cell-based, mouse. The note with it: 100 μg; 20 min incubation; control 36% kill. The procedure:
In the experiment, peritonial normal mouse macrophages were enriched by attaching to petri dishes and adjusted to a cell concentration of 5 to 10×10^6 /ml. 0.1 ml aliquots of this suspension were plated in microtiter plates and 10μ and 5μ of each of four samples was added. The control plate received PBS only. After 20 minutes of incubation in a […], the cells were tested for viability using tryphan-blue dye.

Data set [2] has as its system Staph. aureus. As to the kind of experiment: Antibacterial efficacy of coated I.V. catheters, Bioassay A (Table 8). The note with it: Polyurethane I.V. catheter, silicone matrix coating; 10^4 CFU Staph. aureus. The class given is cell-based. The source says: The coatings were applied by dipping and then drying.
Staph. aureus is used to challenge the I.V. catheter.

The test system of data set [3] is Rauscher Leukemia Virus (RLV). In words: Infectivity of Rauscher Leukemia Virus (RVB3) in mice, spleen weight (Table 4). The class given is in vivo, Balb/CICR mice. The note with it: 2% drug in coating solution, 20 days; for Weight of Spleen: average of 6 animals, infected glove control 1,627; for Weight Increase from Control: infected glove control 1,541. The procedure:
In vivo tests were performed using Rauscher Leukemia Virus (RLV), a recognized retrovirus model (see, e.g., Nature 323, 467-469 (1986); Rupecht et al., Proc. Nat'l. Acad. Sci. USA 82, 7733-7737 (1985)) which is used by the FDA in testing drugs for use in treating AIDS. RLV was introduced into Balb/CICR mice in which it infects the spleen. The level of virus infectivity was quantified by determining the weight increase of the mouse spleen after 20 days from infection.
Each treatment was prepared by incubating 1.5 ml Dulbecco's Phosphate Buffered Saline (PBS) for 10 minutes at 37° C. in the finger tip of a latex glove. After incubation, as much as possible of the material was removed from the glove. 0.4 ml of PBS was then introduced into the glove and this was the sample which was introduced into the animals. […] Thus two of the groups only had four animals each that were considered.
[…] Each treatment was prepared by incubating 0.4 ml sterile PBS containing RVB3 (a strain of RLV) for 10 minutes in a glove tip which had previously had one of drugs or straight PBS incubated in it as described above. Three additional controls, a PBS containing glove with no virus, a virus sample not incubated in a glove, and a PBS sample not incubated in a glove were also run.

Data set [4] has as its system Candida albicans. In words: Rate of killing of Candida albicans on short exposure (Table 5A). The note with it: 10 minute incubation, control >50,000. The class given is cell-based. The procedure:
3 ml of Saboraud broth containing 10^5 organism of Candida albicans
were incubated with the above drug. Aliquots were removed at 5 and 10
minute and were subcultured.

The test system of another data set is Gonococcus. As to the kind of experiment: Killing of Gonococcus (Table 6). The class given is cell-based. Conditions: for Colony Counts in Culture: control >50,000. The procedure:
Drugs were suspended in 5 ml of cultures containing […] of
gonoccccus and incubated. Aliquots were removed at 5 and 10 minute
intervals and subcultured for colony counts.

Data set [5] relates to Candida albicans. In words: Antifungal efficacy of drug coated gloves against Candida albicans (Table 5B). The class given is cell-based. Conditions: treated glove. The procedure: Treated glove fingers were draped over the top of culture
tubes with the treated side foring the inside of the cup
shape. Then 3.0 ml of TSB contining 10^3 organisms of Candida
albicans was dispensed in each finger and all placed in the
water bath shaker at 37° C. Samples were removed at 15
minutes, 1 hour, 2 hours, and 4 hours. They were diluted 1-
10 and plated on blood agar in 2.0 ml amounts.

The subject of a further data set is HSV. As to the kind of experiment: Toxicity of drugs for HSV, titer on vero cells (Table 7A). The class given is cell-based. The note with it: 200 μl of 500 μg/ml stock added to 1 ml virus, 20 min at R.T.; for Titer: read after 48 hours. As for the experimental part: One ml HSV at 3 × 10^6/ml was incubated with 200 μliters of
drugs each 500 μg/ml stock solution. After 20 minutes at
R.T., the virus was titered on monolayers of vero cells,
incubatwd for 2 hours, then overlayed with methyl cellulose.
Virus titers were read after 48 hours. No drug toxicity* was […]

In data set [6] the test system is Staph. aureus. As to the kind of experiment: Antibacterial efficacy of drug coated gloves against Staph. aureus (Table 9). The class given is cell-based. Conditions: 1% in coating solution. As for the experimental part: The fingers of latex gloves were washed and dried. They were then sprayed with a fine mist spray of a coating solution to provide a uniform coating of solution on the glove surface, sufficient to provide complete wetting thereof without runoff. The coating solutions were prepared by dissolving 1% Silicate®Medical Adhesive Type A and 1% of the silicone MDX4-4159 in ethyl acetate, followed by dissolving and dispersing the chlorhexidine acetate and silver sulfadiazine, respectively, therein. The coating was air dried for 24 hours and the gloves tested using the following test:
Treated glove fingers were draped over the tops of culture tubes with the treated side with sprayed on coating forming the inside of the cup shape. Then 3.0 ml of TSB containing 10^4 colony forming units of Staph. aureus was dispensed in each finger and all placed in a water bath shaker at 37° C. Samples were removed at 15 minutes, 1 hour, 2 hours, and 4 hours, diluted 1-10, and the solution plated on blood agar in 2.0 ml amounts.

The next data set has as its system HIV-I. The note with it: 10 minutes exposure; HIBICLENS or HIBISTAT dilutions; C3-44 cells; cited from earlier work.

Broadly, the % Inhibition is the share of the control response that was lost under treatment. A high value points to strong suppression.

Read-outs that look alike come from different tables or passages of the source.

Consider `[H]/N=C(\N/C(=N/[H])NCCCCCCNC(=N)NC(=N)Nc1ccc(Cl)cc1)Nc1ccc(Cl)cc1` [CHA, chlorhexidine acetate], for which the % infection versus control at 2.5 µg/mL in data set [1] (H9, 24 h, drug during incubation 10 μg/ml, final 2.5 μg/ml, read-out: % Infection v. Control) worked out at 108%. Besides, in data set [1] (drug during incubation 10 μg/ml, final 2.5 μg/ml), the “% Infection” value was determined as 3.35%. Further, in the data set with H9 cells, the “condition of cells” value is “Cells in terrible condition”. Besides, the figures for the “% Viab (live cells/live & dead)” value with H9 cells (50 (ml/ml as printed in text)) and in the data set with H9 cells (100 (ml/ml as printed in text)) were 73% and 20%, respectively. For the same compound, the “% Kill” value in the data set with macrophages was 100%. Besides, in the data set with Staph. aureus [2], the “Days of Activity” value was 2 days.
As to `CC(=O)O[C@H]1C[C@@]2(C)[C@@H](C[C@@H](O)[C@H]3[C@@]4(C)CC[C@@H](O)[C@@H](C)[C@@H]4CC[C@@]32C)/C1=C(\CCC=C(C)C)C(=O)O` [Fusidic acid], in data set [3], the “Weight of Spleen” value turned out to be 107 mg and the “Weight Increase from Control” value is listed as 21 mg.
In the case of nonoxynol, the “Colony Counts in Culture” value in the data set with Candida albicans [4] (0.2%) is on record as > 50,000; with Gonococcus (0.1%, 5 Minutes) it was 40; with Gonococcus (0.1%, 10 Minutes) it was 70. In addition, the “effectiveness against gonococcus” value with Gonococcus (general statement) is “effective against gonococcus”.
On to `[H]/N=C(\N/C(=N/[H])NCCCCCCNC(=N)NC(=N)Nc1ccc(Cl)cc1)Nc1ccc(Cl)cc1` [Chlorhexidine, chlorhexidine], for which the “viral infectivity” value in data set [1] (10 μg/ml) is given as “did not itself reduce viral infectivity”. Also, in [1] (low concentrations, combination compared with AgSD alone), the “effectiveness for reducing infectivity of AIDS virus” value is given as “no effect on infectivity of AIDS virus”. For the same compound, in [3], the “Weight of Spleen” value is listed as 234 mg. Moreover, the “Weight Increase from Control” value in data set [3] is recorded as 148 mg. The “Colony Counts in Culture” value is 30 with Candida albicans [4] (concentration 100 (unit not given)); 0 in the data set with Candida albicans [5] (1 Hour, control 2,000); 0 in the data set on Candida albicans [5] (2 Hours, control 4,000); 0 in the data set with Candida albicans [5] (4 Hours, control 6,000); 75 in the data set on Candida albicans [5] (15 Minutes, control 1,400); 2,000 with Gonococcus (100 μg/ml, 5 Minutes). The “Colony Counts in Culture” value in the data set on Gonococcus (100 μg/ml, 10 Minutes) worked out at 10; with Staph. aureus [6] (15 min., control 12,000), 100; with Staph. aureus [6] (1 hour, control 15,000), 0; in the data set with Staph. aureus [6] (2 hours, control 20,000), 0; in the data set with Staph. aureus [6] (4 hours, control 50,000) it was 0. The “% Inhibition” value with HSV is on record as 0%. For the same compound, the Titer in the data set on HSV was 2.7 × 10^6.
`N=C(NCCCCCCNC(=N)NC(=N)Nc1ccc(Cl)cc1)NC(=N)Nc1ccc(Cl)cc1.O=C(O)[C@H](O)[C@@H](O)[C@H](O)[C@H](O)CO.O=C(O)[C@H](O)[C@@H](O)[C@H](O)[C@H](O)CO` [chlorohexidine gluconate]: the “concentration not effective to prevent HIV-I infection” value with HIV-I is given as at most 0.01%.
With `C[C@H](CCC(=O)O)[C@H]1CC[C@H]2[C@@H]3CC[C@@H]4C[C@H](O)CC[C@]4(C)[C@H]3C[C@H](O)[C@]12C` [NaDC, sodium deoxycholate], the % infection versus control at 10 µg/mL in [1] (H9, 24 h, read-out: % Infection v. Control) is 108%. The “% Infection” value in data set [1] (drug during incubation 40 μg/ml, final 10.0 μg/ml) turned out to be 3.35%. In addition, the “% Viab (live cells/live & dead)” value with H9 cells (50 (ml/ml as printed in text)) is recorded as 73%; in the data set with H9 cells (100 (ml/ml as printed in text)), 44%. Besides, the “Viable Cells/ml” value in the data set on H9 cells (50 (ml/ml as printed in text)) is listed as 1.2 × 10^6 Cells/ml; with H9 cells (100 (ml/ml as printed in text)), 2.0 × 10^6 Cells/ml. Moreover, the “Weight of Spleen” value in [3] came to 109 mg. For the same compound, the “Weight Increase from Control” value in [3] was 23 mg. Further, the “Colony Counts in Culture” value in the data set with Candida albicans [4] (concentration 1,000 (unit not given)) is listed as 8,000; with Gonococcus (1,000 μg/ml, 5 Minutes), 12,000; with Gonococcus (1,000 μg/ml, 10 Minutes), 4,000. The “% Inhibition” value in the data set on HSV stood at 0%. Further, the Titer in the data set on HSV is given as 3.2 × 10^6.
With benzalkonium chloride, in the data set on HSV, the “% Inhibition” value is 98% and the Titer is listed as 5.2 × 10^4.
